In patent US9102620B2, “Deuterated N-ethyl-N-phenyl-1,2-dihydro-4-hydroxy-5-chloro-1-methyl-2-oxoquinoline-3-carboxamide, salts and uses thereof” (TEVA PHARMACEUTICAL INDUSTRIES, LTD., priority 2010, dated 2015):
Where “and” joins values, the source holds several entries; their conditions need not be identical. Identical values can stand only once. Like-named read-outs stand apart in the source and are kept apart here.

Experiments:
Assay type in all cases: in vivo
[1] = DELAQ concentrations in rat plasma following oral administration of test item; details: rats, oral 0.2 mg/kg, in average
Description: DELAQ in rat plasma was also determined under the following condition. The plasma was purified by on-line SPE after precipitation with LUDOX AS-40 colloidal silica solution followed by the analysis with HPLC with MS/MS detection. The main objectives of this example were: • Quantification of Compound 1, Compound 2, Compound 3 and Laquinimod in rat plasma using LC/MS/MS bioanalytical method. • Characterization of the pharmacokinetic profile of Compound 1, Compound 2, Compound 3 and Laquinimod following oral (PO) administration at a dose of 0.2 mg/kg. • The measurement DELAQ concentrations in the collected plasma samples. Blood was withdrawn from the rats at five different time points for the preparation of plasma. The concentrations of Compound 1, Compound 2, Compound 3, laquinimod, and DELAQ were determined in these plasma samples, using applicable LC/MS/MS methods. The concentrations of test items (Compound 1, Compound 2, Compound 3 and Laquinimod) and the concentration of DELAQ were determined in the plasma samples by using reliable LC/MS/MS assay.

[2] = Pharmacokinetic profile in rat plasma following oral administration
Description: The main objectives of this example were: • Quantification of Compound 1, Compound 2, Compound 3 and Laquinimod in rat plasma using LC/MS/MS bioanalytical method. • Characterization of the pharmacokinetic profile of Compound 1, Compound 2, Compound 3 and Laquinimod following oral (PO) administration at a dose of 0.2 mg/kg. • The measurement DELAQ concentrations in the collected plasma samples. Rats cannulated at the right common jugular vein by polyethylene tubing were used. In the in-life part, three cannulated female rats were treated with each of the four test articles at dose of 0.2 mg/kg. Blood was withdrawn from the rats at five different time points for the preparation of plasma. The concentrations of Compound 1, Compound 2, Compound 3, laquinimod, and DELAQ were determined in these plasma samples, using applicable LC/MS/MS methods. Oral administration was performed by oral gavage at a dosage volume of 5 ml/kg using a blunt feeding stainless steel needle (Popper & Sons, USA). Body weights were measured before dose administration and doses were calculated on the basis of individual body weight. Blood were withdrawn from animals at the following time points: 1, 2, 4, 8 and 24 hours after dosing as detailed in the table below. The actual sampling time were recorded. Each animal was restrained firmly. After the removal of the seal the port of the cannula was accessed with an appropriate blunted needle mounted on a syringe containing PBS. After having withdrawn approximately 100 μL of blood, the syringe was changed to a clean heparinized syringe. Approximately 250 μL of blood was collected for the preparation of plasma. The first 100 μL fraction of blood was returned and 250 μL of PBS was given to the animal through the catheter. The catheter was filled by heparinized glycerol (100 IU/ml) solution prepared by mixing 10 ml stock heparin (200 IU/ml) with 10 ml of sterile glycerol (d=1.26 g/mL). Blood specimens were mixed immediately and were placed on water ice. Whole blood was centrifuged at 2500 g for 10 min at 4° C., and the separated plasma was transferred into pre-labeled polypropylene tubes and the tubes were frozen at −70° C. within 70 minutes of collection. The concentrations of test items (Compound 1, Compound 2, Compound 3 and Laquinimod) and the concentration of DELAQ were determined in the plasma samples by using reliable LC/MS/MS assay. Pharmacokinetic parameters were calculated and the mean plasma levels versus time curves were evaluated. The following pharmacokinetic parameters were determined from the mean plasma concentration-time data (mean of three animals at each time point) of Compound 1, Compound 2, Compound 3 and Laquinimod.

MOG induced EAE = MOG induced EAE in C57BL/6 mice; details: daily; for Mortality: Day 0 to Day 30; for % inhibition 1 (according to incidence) / % inhibition 2 (according to MMS) / % inhibition 3 (according to GMS): compared to vehicle; for Incidence: sick mice/group
[3] = female, rat, po, 0.2 mg/kg, Average of rats
[4] = female, rat, po, 0.2 mg/kg, Average of rats, read-out: Cmax
[5] = female, rat, po, 0.2 mg/kg, Average of rats, read-out: Tmax
[6] = female, rat, po, 0.2 mg/kg, individual rats
[7] = female, rat, po, 0.2 mg/kg, individual rats, read-out: Cmax
[8] = female, rat, po, 0.2 mg/kg, individual rats, read-out: Tmax
[9] = individual rats, oral 0.2 mg/kg

SMILES: [2H]C([2H])([2H])C([2H])([2H])N(C(=O)c1c(O)c2c(Cl)cccc2n(C)c1=O)c1ccccc1 [Compound 2, N-D5-ethyl-N-phenyl-1,2-dihydro-4-hydroxy-5-chloro-1-methyl-2-oxoquinoline-3-carboxamide]
- reduction in DELAQ concentrations compared to laquinimod treated animals [1]: about ten-fold
- AUC(0-inf) [2, 3]: 12300 ng·h/mL
- AUC(0-t) [2, 3]: 10300 ng·h/mL
- half-life [2, 3]: 13.8 h
- Cmax [2, 4]: 725 ng/mL
- Tmax [2, 5]: 1.8 h
- AUC(0-inf) [2, 6]: 10000 ng·h/mL
- AUC(0-t) [2, 6]: 10000 ng·h/mL
- half-life [2, 6]: 13.6 h
- Cmax [2, 7]: 704 ng/mL
- Tmax [2, 8]: 2 h
- AUCinf [2, 9]: 14699.6 ng·h/mL and 12439.0 ng·h/mL and 11975.3 ng·h/mL
- AUClast [2, 9]: 10422.1 ng·h/mL and 8741.6 ng·h/mL and 11975.3 ng·h/mL
- Cmax [2, 9]: 827.6 ng/mL and 551.4 ng/mL and 816.2 ng/mL
- T1/2 [2, 9]: 13.4 h and 14.6 h
- Tmax [2, 9]: 1.0 h
- GMS value (group mean score) (MOG induced EAE; 10 mg/kg orally): 0.79 ± 0.2
- MMS value (mean maximal score) (MOG induced EAE; 10 mg/kg orally): 2.1 ± 1.3
- Mean Duration (MOG induced EAE; 10 mg/kg orally): 13.2 ± 7.7 days
- Mean Onset (MOG induced EAE; 10 mg/kg orally): 15.3 ± 6.8 days
- activity in inhibition of EAE clinical signs compared to laquinimod (MOG induced EAE; 10 mg/kg orally): no significant difference in activity
- Mortality (MOG induced EAE; 10 mg/kg orally): 0/15
- % inhibition 1 (according to incidence) (MOG induced EAE; 10 mg/kg orally): 7.1%
- % inhibition 2 (according to MMS) (MOG induced EAE; 10 mg/kg orally): 34.4%
- % inhibition 3 (according to GMS) (MOG induced EAE; 10 mg/kg orally): 64.3%
- Incidence (MOG induced EAE; 10 mg/kg orally): 13/15

SMILES: CCN(C(=O)c1c(O)c2c(Cl)cccc2n(C)c1=O)c1ccccc1 [Laquinimod, N-ethyl-N-phenyl-1,2-dihydro-4-hydroxy-5-chloro-1-methyl-2-oxoquinoline-3-carboxamide]
- AUC(0-inf) [2, 3]: 15500 ng·h/mL
- AUC(0-t) [2, 3]: 11700 ng·h/mL
- half-life [2, 3]: 11.8 h
- Cmax [2, 4]: 794 ng/mL
- Tmax [2, 5]: 1.7 h
- AUC(0-inf) [2, 6]: 14700 ng·h/mL
- AUC(0-t) [2, 6]: 11000 ng·h/mL
- half-life [2, 6]: 12 h
- Cmax [2, 7]: 770 ng/mL
- Tmax [2, 8]: 2 h
- AUCinf [2, 9]: 17141.8 ng·h/mL and 14684.6 ng·h/mL
- AUClast [2, 9]: 12659.7 ng·h/mL and 11487.3 ng·h/mL
- Cmax [2, 9]: 774.8 ng/mL and 838.8 ng/mL
- T1/2 [2, 9]: 12.4 h and 10.9 h
- Tmax [2, 9]: 1.0 h
- GMS value (group mean score) (MOG induced EAE; 10 mg/kg orally): 1.14 ± 0.5
- MMS value (mean maximal score) (MOG induced EAE; 10 mg/kg orally): 2.1 ± 1.9
- Mean Duration (MOG induced EAE; 10 mg/kg orally): 9.3 ± 8.3 days
- Mean Onset (MOG induced EAE; 10 mg/kg orally): 21.6 ± 8.4 days
- Mortality (MOG induced EAE; 10 mg/kg orally): 0/15
- % inhibition 1 (according to incidence) (MOG induced EAE; 10 mg/kg orally): 35.7%
- % inhibition 2 (according to MMS) (MOG induced EAE; 10 mg/kg orally): 34.4%
- % inhibition 3 (according to GMS) (MOG induced EAE; 10 mg/kg orally): 48.4%
- % inhibition 3 (according to GMS) (MOG induced EAE; 10 mg/kg orally, listed as laquinimod): 48.4%
- Incidence (MOG induced EAE; 10 mg/kg orally): 9/15
- GMS value (group mean score) (MOG induced EAE; 25 mg/kg orally): 0.5±0.1 and 0.5 ± 0.13
- MMS value (mean maximal score) (MOG induced EAE; 25 mg/kg orally): 1.3±1.8
- Mean Duration (MOG induced EAE; 25 mg/kg orally): 3.0 ± 5.8 days
- Mean Onset (MOG induced EAE; 25 mg/kg orally): 28.0 ± 5.8 days
- Mortality (MOG induced EAE; 25 mg/kg orally): 0/15
- % inhibition 1 (according to incidence) (MOG induced EAE; 25 mg/kg orally): 71.4%
- % inhibition 2 (according to MMS) (MOG induced EAE; 25 mg/kg orally): 59.4%
- % inhibition 3 (according to GMS) (MOG induced EAE; 25 mg/kg orally): 97.7%
- Incidence (MOG induced EAE; 25 mg/kg orally): 4/15
